Experimental data from ChEMBL document CHEMBL4052769, “Synthesis and biological evaluation of novel 1,2,3-triazole derivatives as anti-tubercular agents” (Bioorg Med Chem Lett, 2017).
Values after ≈ are worked out from the molar mass of the structure shown.

Legend:
[1] = test system: Mycobacterium tuberculosis; experiment: Antitubercular activity against Mycobacterium tuberculosis H37Ra ATCC 25177 after 4 weeks by Agar-based proportion Assay; assay type: functional; conditions: H37Ra ATCC 25177, 672 h
[2] = Cytotoxicity against Swiss mouse BMDM assessed as reduction in cell viability after 24 hrs by MTS assay; assay type: cell-based; conditions: bone marrow-derived macrophages (BMDM)
[3] = Selectivity index, ratio of CC50 for Swiss mouse BMDM to MIC for Mycobacterium tuberculosis H37Ra ATCC 25177

SMILES	MIC [1] [µg/mL]	CC50 at 24 h [2] [µg/mL]	Selectivity Index [3]
COc1ccc(-n2cc(COc3ccc(-c4ccccc4)cc3)nn2)cc1	> 25		
O=[N+]([O-])c1ccc(Cn2cc(COc3ccc(-c4ccccc4)cc3)nn2)cc1	> 25		
Fc1ccc(-n2cc(COc3ccc(-c4ccccc4)cc3)nn2)cc1F	3.12 (≈ 8.59 µM)	100 (≈ 275 µM)	32
O=[N+]([O-])c1ccc(-n2cc(COc3ccc(-c4ccccc4)cc3)nn2)cc1	> 25		
Fc1ccc(-n2cc(COc3ccc(-c4ccccc4)cc3)nn2)cc1Cl	1.56 (≈ 4.11 µM)	100 (≈ 263 µM)	64.1
Clc1ccc(-n2cc(COc3ccc(-c4ccccc4)cc3)nn2)cc1	> 25		
CC[C@@H](CO)NCCN[C@@H](CC)CO [ETHAMBUTOL]	2 (≈ 9.79 µM)	100 (≈ 489 µM)	50
c1ccc(Cn2cc(COc3ccc(-c4ccccc4)cc3)nn2)cc1	> 25		
Fc1ccc(-n2cc(COc3ccc(-c4ccccc4)cc3)nn2)cc1	> 25		
c1ccc(CCn2cc(COc3ccc(-c4ccccc4)cc3)nn2)cc1	> 25		
FC(F)(F)c1ccc(-n2cc(COc3ccc(-c4ccccc4)cc3)nn2)cc1	3.12 (≈ 7.89 µM)	100 (≈ 253 µM)	32
CC(=O)OCCn1cc(COc2ccc(-c3ccccc3)cc2)nn1	1.56 (≈ 4.62 µM)	100 (≈ 296 µM)	64.1
Brc1ccc(-n2cc(COc3ccc(-c4ccccc4)cc3)nn2)cc1	> 25		
CCCCCCCCn1cc(COc2ccc(-c3ccccc3)cc2)nn1	> 25		
FC(F)Oc1ccc(-n2cc(COc3ccc(-c4ccccc4)cc3)nn2)cc1	1.56 (≈ 3.97 µM)	100 (≈ 254 µM)	
N#Cc1ccc(-n2cc(COc3ccc(-c4ccccc4)cc3)nn2)cc1	> 25		
NNC(=O)c1ccncc1 [ISONIAZID]	0.025 (≈ 0.182 µM)	100 (≈ 729 µM)	4000
c1ccc(-c2ccc(OCc3cn(-c4ccccc4)nn3)cc2)cc1	> 25		
Fc1ccccc1-n1cc(COc2ccc(-c3ccccc3)cc2)nn1	0.78 (≈ 2.26 µM)	100 (≈ 290 µM)	128
